Reference: article PMC11477141, “Chemokine Receptor N-Terminus Charge Dictates Reliance on Post-Translational Modifications for Effective Ligand Capture and Following Boosting by Defense Peptides” (International Journal of Molecular Sciences, 2024)
One block for each substance: values may come before it. Where no end group is shown, it is not given here.

Key:
S6S7T16S17AAAA-CCR5 = experiment: BRET CAMYEL Gαi signaling via S6S7T16S17AAAA-CCR5; format: cell-based, human; conditions: CHO cells, n = 3
Procedure: (§1) BRET measurements of Gαi signaling and β-arrestin recruitment: Cells were seeded in 6-well plates (500,000 cells/well) and transiently transfected the following day. For BRET measurements of Gαi signaling, cells were transfected with vectors encoding the human chemokine receptors as indicated (160 ng/well) and the CAMYEL sensor (cAMP sensor, YFP-Epac-RLuc) (840 ng/well) using Lipofectamine (6 µL/well). Briefly, DNA was dissolved in 125 µL OPTI-MEM and Lipofectamine was dissolved in 125 µL OPTI-MEM. The DNA and Lipofectamine solutions were combined into a transfection mixture. The transfection mixture was added dropwise to cells incubated in OPTI-MEM (1 mL/well). Transfections were terminated after 5 h by adding 1 mL of fresh culture medium on top of the OPTI-MEM. The following day the cells were loosened from the plates in PBS with 5 mM glucose and subsequently aliquoted in white 96-well iso plates (~25,000 cells/well). […] The BRET signal is determined as the ratio eYFP (530 nm)/Rluc (480 nm).
(§2) BRET principle with CAMYEL: For quantification of signaling initiated immediately downstream of receptor activation, we used the cAMP binding CAMYEL sensor to perform bioluminescence resonance energy transfer (BRET) based assays. […] The BRET ratio is determined as the ratio between YFP/Rluc, and an increase in BRET ratio indicates a decrease in cAMP and thus increased chemokine receptor activation. […]

Y14Y15AA-CCR5 = experiment: BRET CAMYEL Gαi signaling via Y14Y15AA-CCR5; format: cell-based, human; conditions: CHO cells, n = 3
Procedure: as §1, §2

Y10A-CCR5 = experiment: BRET CAMYEL Gαi signaling via Y10A-CCR5; format: cell-based, human; conditions: CHO cells, n = 3
Procedure: as §1, §2

T16S17AA-CCR5 = experiment: BRET CAMYEL Gαi signaling via T16S17AA-CCR5; format: cell-based, human; conditions: CHO cells, n = 3
Procedure: as §1, §2

Y10Y14Y15AAA-CCR5 = experiment: BRET CAMYEL Gαi signaling via Y10Y14Y15AAA-CCR5; format: cell-based, human; conditions: CHO cells, n = 3
Procedure: as §1, §2

CCR5 = biological target: T1, CCR5 (Homo sapiens, UniProt P51681); experiment: BRET CAMYEL cAMP sensor assay of ligand-induced Gαi signaling via CCR5; format: cell-based; conditions: n = 3
T1 construct: expressed in transfected cells; host or cells: CHO-K1, CHO-pgsB618 (GAG-minus), HEK293 WT / DeltaSia / sC
Procedure: For quantification of signaling initiated immediate downstream of receptor activation, we used the cAMP binding CAMYEL sensor to perform bioluminescence resonance energy transfer (BRET)-based assays. Shortly, in this assay increased receptor activation leads to an increase in BRET ratio. For detailed information see the Materials and Methods section.
In signaling assays testing the boosting ability of basic peptides, transfected cells were aliquoted into 96-well plates in the presence of 10 µM peptide or PBS vehicle. After R-Luc substrate addition, chemokines were added to reach final concentrations ranging from 0–100 nM (0, 0.1, 1, 10, and 100 nM) and forskolin was applied before reading emission at 475 and 525 nm.
BRET measurements of Gαi signaling and β-arrestin recruitment: Cells were seeded in 6-well plates (500,000 cells/well) and transiently transfected the following day. For BRET measurements of Gαi signaling, cells were transfected with vectors encoding the human chemokine receptors as indicated (160 ng/well) and the CAMYEL sensor (cAMP sensor, YFP-Epac-RLuc) (840 ng/well) using Lipofectamine (6 µL/well). Briefly, DNA was dissolved in 125 µL OPTI-MEM and Lipofectamine was dissolved in 125 µL OPTI-MEM. The DNA and Lipofectamine solutions were combined into a transfection mixture. The transfection mixture was added dropwise to cells incubated in OPTI-MEM (1 mL/well). Transfections were terminated after 5 h by adding 1 mL of fresh culture medium on top of the OPTI-MEM. The following day the cells were loosened from the plates in PBS with 5 mM glucose and subsequently aliquoted in white 96-well iso plates (~25,000 cells/well). When using C21TP variants and defense peptides (hBD2 and histatin), these were added to a final concentration of 10 μM/well, while an equal amount of PBS was added to control cells. The bioluminescence substrate coelenterazine was added to a final conc. of 5 µM. After 10 min, varying ligand concentrations were added. For BRET measurements of Gαi signaling, forskolin was added 5 min after the addition of the ligand, to a final conc. of 5 µM. The plates were kept in the dark at all times. A Perkin Elmer Envision machine was used for measuring the emission signals at 530 and 480 nm. The BRET signal is determined as the ratio eYFP (530 nm)/Rluc (480 nm).
BRET principle with CAMYEL: For quantification of signaling initiated immediately downstream of receptor activation, we used the cAMP binding CAMYEL sensor to perform bioluminescence resonance energy transfer (BRET) based assays. In this assay we measure changes in intracellular cAMP levels in response to receptor activation. Activation of chemokine receptors lead to a decrease in cAMP through inhibition of adenylate cyclase (AC). In the current setup we initially add forskolin that stimulates AC directly to induce an increase in intracellular cAMP, and we then measure the ability of a ligand (chemokine) to counteract the forskolin-induced increase in cAMP. The cAMP sensor (CAMYEL cAMP sensor, YFP-Epac-RLuc) carries the donor Renilla luciferase (Rluc) and the acceptor YFP. Coelenterazine is a substrate for Rluc that will emit light at around 475 nm upon enzymatic cleavage catalyzed by Rluc. When Rluc and YFP are in close proximity, the energy from the emitted light from coelenterazine can be transferred to YFP, resulting in an excitation of YFP, leading to a BRET signal around 525 nm. EPAC is a cAMP binding protein that changes conformation upon cAMP binding. During low cAMP concentrations, Rluc and YFP are near each other, and a strong BRET signal at 525 nm is obtained. When cAMP levels increase, cAMP will bind to EPAC, creating a conformational change, separating Rluc and YFP, reducing the BRET ratio, and increasing the emission from Rluc at 475 nm. Thus, by measuring the ratio between the cAMP-bound (475 nm) and the cAMP-free (525 nm) state of CAMYEL we obtain a measure of receptor activation. […]

[1] = CHO-K1 cells, 10 µM peptide, chemokine 0-100 nM
[2] = HEK293 WT, DeltaSia and sC cells, 10 µM peptide
[3] = M1-tagged CCR5, HEK293 WT, DeltaSia and sC cells, 10 µM peptide

T1 sequence (P51681 whole entry): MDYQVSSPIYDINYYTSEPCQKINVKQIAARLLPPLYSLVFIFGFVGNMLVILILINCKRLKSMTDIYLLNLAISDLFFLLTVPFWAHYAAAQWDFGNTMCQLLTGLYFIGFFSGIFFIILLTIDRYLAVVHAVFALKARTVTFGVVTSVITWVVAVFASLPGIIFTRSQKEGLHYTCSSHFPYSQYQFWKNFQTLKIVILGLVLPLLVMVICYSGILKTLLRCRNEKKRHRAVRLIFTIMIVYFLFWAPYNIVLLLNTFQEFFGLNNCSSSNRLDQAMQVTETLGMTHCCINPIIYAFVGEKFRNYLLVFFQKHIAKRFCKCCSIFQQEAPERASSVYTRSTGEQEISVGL

boosting of CCL5 signaling via S6S7T16S17AAAA receptor variant (S6S7T16S17AAAA-CCR5; 10 µM peptide): not in S6S7T16S17AAAA | boosting of CCL5 signaling via Y1415AA receptor variant (Y14Y15AA-CCR5; 10 µM peptide): maintained | boosting of CCL5 signaling via Y10A receptor variant (Y10A-CCR5; 10 µM peptide): maintained | boosting of CCL5 signaling via T16S17AA receptor variant (T16S17AA-CCR5; 10 µM peptide): maintained | boosting of CCL5 signaling via Y10Y14Y15AAA receptor variant (Y10Y14Y15AAA-CCR5; 10 µM peptide): no longer possible | boosting of CCL5 signaling via CCR5 in GAG-plus (WT) and GAG-minus cells (CCR5; CHO GAG-plus and CHO GAG-minus (CHO-pgsB618) cells, 10 µM peptide): boosted | boosting of CCL5-induced Gαi signaling via CCR5 (CCR5; [1]): boosted | boosting of CCL8-induced Gαi signaling via CCR5 (CCR5; [1]): boosted | effect on CCL3-induced Gαi signaling via CCR5 (CCR5; [1]): not affected | boosting of signaling by CCL5, E26A and E66A via CCR5 (CCR5; HEK293 DeltaSia and sC cells, 10 µM peptide): lost | boosting of CCL3 signaling via CCR5 (CCR5; [2]): absent | boosting of CCL5 signaling via CCR5 (CCR5; [2]): observed in all three cell lines | boosting of CCL8 signaling via CCR5 (CCR5; [2]): absent | boosting of E66A signaling via CCR5 (CCR5; HEK293 sC cells, 10 µM peptide): significantly boosted | boosting of CCL3-induced signaling via M1-CCR5 (CCR5; [3]): not boosted | boosting of CCL5-induced signaling via M1-CCR5 (CCR5; [3]): boosted | boosting of CCL8-induced signaling via M1-CCR5 (CCR5; [3]): not boosted
Substance: RKDRGASKTGKKGKGSKGCKRTERSQTPKGP [C21TP^81-111]
boosting of signaling by CCL5, E26A and E66A via CCR5 (CCR5; HEK293 WT cells, 10 µM peptide): boosting occurs with all three versions of CCL5

LogEC50 of CCL5-induced Gαi signaling via CCR5 (CCR5; CHO GAG-plus (WT CHO-K1) cells, CCL5 alone without peptide): −7.522 ± 0.639 | Gαi signaling via CCR5 in DeltaSia cells compared to WT cells (CCR5; HEK293 DeltaSia (ST3GAL1/2 KO)): significantly impaired | Gαi signaling via CCR5 in DeltaSia and sC cells (CCR5; HEK293 DeltaSia and sC, CCL5 oligomerization variants experiment): very low | Gαi signaling via CCR5 in sC cells compared to WT cells (CCR5; HEK293 sC (C1GALT1 KO)): almost abolished | Gαi signaling via M1-CCR5 in DeltaSia and sC cells compared to WT cells (CCR5; M1-tagged CCR5, HEK293 DeltaSia and sC): drastically reduced
Substance: CCL5: human chemokine from Peprotech, overall basic
Gαi signaling via S6S7T16S17AAAA-CCR5 compared to WT-CCR5 (S6S7T16S17AAAA-CCR5): completely abolished | Gαi signaling via Y14Y15AA-CCR5 compared to WT-CCR5 (Y14Y15AA-CCR5): completely abolished | Gαi signaling via Y10A-CCR5 compared to WT-CCR5 (Y10A-CCR5): significantly reduced | Gαi signaling via T16S17AA-CCR5 compared to WT-CCR5 (T16S17AA-CCR5): improved | Gαi signaling via Y10Y14Y15AAA-CCR5 compared to WT-CCR5 (Y10Y14Y15AAA-CCR5): completely abolished
